# From US8551456B2, “Combination therapy and methods for treating bacterial biofilms” (priority 2010, dated 2013)
# Entries after “also recorded” stand apart in the source; their conditions may differ.
# How the values were obtained:
# [1] = system: P. aeruginosa wild-type PAO1 biofilms; test: Combined TMP and antibiotic treatment of biofilms in the dark, CSLM LIVE/DEAD; type: cell-based, Pseudomonas aeruginosa; details: for gain in killing by the addition of TMP to the antibiotic / red (dead) staining with antibiotic + TMP versus antibiotic alone (FIGS. 5A and 5B) / Effect on P. aeruginosa biofilm cells, TMP + Antibiotic, pH 7: TMP 225 μM 10 min then antibiotic 100 μg ml^−1 2 h
# Description: Biofilms were grown on glass slides as described above. […] Slides were incubated in tobramycin for 2 h at 37° C. All incubations were performed in the dark. Cell viability within biofilms was assessed using the LIVE/DEAD BacLight bacterial viability kit and visualized with an Olympus FV1000 CSLM as described above.
# Bacterial viability was determined using the LIVE/DEAD BacLight Bacterial Viability assay. The images show horizontal optical sections from the midpoint of the biofilms flanked by vertical optical sections in biofilms treated with panel A showing tobramycin alone and panel B showing TMP+tobramycin.
# Using the same protocol used in Example 3 for tobramycin, additional antibiotics were tested to aid in the elucidation of the mechanism of bacterial biofilm disruption in the absence of photoactivation.
# Bacterial viability was determined using the LIVE/DEAD BacLight Bacterial Viability assay. Cells staining red are considered dead while cells staining green are alive. […] In summary, panels C, E, G, I, K and M received the respective antibiotic alone, and panels B, D, F, H, J, L and N were treated with the combination of TMP and antibiotic.
# [2] = system: P. aeruginosa PAO1 wild-type biofilms; test: Viable plate counts of cells from static biofilms after TMP and irradiation; type: cell-based, Pseudomonas aeruginosa; details: wild-type PAO1, 225 μM TMP, 10 min of irradiation
# Description: (§1) P. aeruginosa PAO1 wild-type and isogenic pqsA mutant strain were obtained from Eb Pesci (East Carolina University School of Medicine). P. aeruginosa strains were grown aerobically with shaking in Minimal Salts medium (40 mM K2HPO4, 20 mM KH2PO4, 7.6 mM [NH4]2SO4, 0.2 mM MgSO4.7H2O, 9.2×10^−3 mMFeCl3.6H2O, 0.2% [wt/vol] glucose; adjusted pH 7.0) at 37° C. (4, 17). For static biofilms, P. aeruginosa strains were grown overnight in Minimal Salts medium at 37° C. with shaking. The following day, bacteria were diluted in fresh media to an OD590nm of 0.15. Five hundred microliters of the standardized culture was added to sterile polystyrene cuvettes and incubated statically for 24 h at 37° C. For examination of static biofilms using confocal laser scanning microscopy (CSLM), sterile microscope slides were submerged in standardized cell suspensions and incubated statically at 37° C. for 24 h.
# (§2) Samples were irradiated for various exposure times at an intensity of 192 Joules/cm^2.
# (§3) Static biofilms formed in sterile polystyrene cuvettes, as described above, were used to quantify cell survival. […] Cells released from the biofilm following treatment were collected from the supernatant by centrifugation and resuspended in PBS. The remaining attached biofilm was washed once and resuspended in PBS. The number of viable cells in the supernatant and attached biofilms following treatment were determined by plating on LB (1.5% agar) plates that were incubated for 24 h at 37° C.
# (§4) Cells were collected from the supernatant of treated biofilms, as well as from the remaining attached biofilm. Cell suspensions were diluted and plated onto LB (1.5% agar) plates and incubated 24 h at 37° C. CFU were used to determine the surviving fraction. […] The recovered supernatants contained the cells sloughed off as the result of TPM exposure and irradiation.
# [3] = system: P. aeruginosa pqsA mutant biofilms; test: as above; type: cell-based, Pseudomonas aeruginosa; details: 225 μM TMP, irradiated 10 min
# Description: as §1, §2, §3, §4
# [4] = system: P. aeruginosa PAO1 wild-type biofilms; test: CSLM of static biofilms with LIVE/DEAD BacLight viability assay; type: cell-based, Pseudomonas aeruginosa
# Description: as §1, §2
# Negative control slides were transferred to 50 ml tubes containing only PBS. […] Bacterial viability was assessed in biofilm cultures using the LIVE/DEAD BacLight bacterial viability assay (Molecular Probes Inc., Eugene, Oreg.), containing SYTO9 and propidium iodide dyes. Biofilms were visualized with an Olympus FV1000 CSLM (Olympus America, Center Valley, Pa.) using a 60× oil immersion objective. Biofilm images were acquired in 0.4 μm optical sections for the entire thickness of the biofilm.
# Bacterial viability was determined using the LIVE/DEAD BacLight Bacterial Viability assay. The cells in panels C-F show significant staining in red (considered dead) while cells in panels A, B, G and H show predominate staining in green (alive). […] The few remaining attached cells were nonviable.
# [5] = system: P. aeruginosa pqsA mutant biofilms; type: cell-based, Pseudomonas aeruginosa
# Description: as §1, §2
# Negative control slides were transferred to 50 ml tubes containing only PBS. […] Bacterial viability was assessed in biofilm cultures using the LIVE/DEAD BacLight bacterial viability assay (Molecular Probes Inc., Eugene, Oreg.), containing SYTO9 and propidium iodide dyes. […]
# Bacterial viability was determined using the LIVE/DEAD BacLight Bacterial Viability assay.
# pUCP18 plasmid DNA = test: TMP induced degradation of plasmid DNA, agarose gel electrophoresis; type: biochemical; details: 100 or 225 μM TMP
# Description: Plasmid DNA with and without TMP was irradiated for designated times. Prior to light exposure, samples of DNA supplemented with TMP were collected and incubated in the dark for comparison. DNA was examined using agarose gel electrophoresis.
# The untreated control samples had the three expected forms of plasmid DNA: covalently closed circles, relaxed circular, and linear cut (FIG. 3: lanes 1 and 7). Plasmid DNA exposed to light only appeared similar to the control (FIG. 3: lanes 2 and 8).
# [6] = system: extracellular DNA in P. aeruginosa wild-type biofilms; test: Quantification of extracellular biofilm DNA with DNA stains such as Pico Green; type: cell-based, Pseudomonas aeruginosa; details: data not shown, possible competition of TMP with Pico Green
# [7] = system: P. aeruginosa PAO1 planktonic cell populations; details: TMP 2.5 mg ml^−1; cited from earlier work
# [8] = system: wild-type PAO1 isolates grown in biofilms; details: cited from earlier work
# S. aureus = details: cited from earlier work
compound,measurement,setting,value
gentamicin,gain in killing by the addition of TMP to the antibiotic,[1]; dark,behaved similarly to tobramycin
same,red (dead) staining with antibiotic + TMP versus antibiotic alone (FIGS. 5A and 5B),[1]; dark,significant increased red staining
CC1(C)S[C@@H]2[C@H](NC(=O)C(C(=O)O)c3ccccc3)C(=O)N2[C@H]1C(=O)O (stereo partly drawn) [carbenicillin],gain in killing by the addition of TMP to the antibiotic,[1]; dark,no enhanced killing
same,red (dead) staining with antibiotic + TMP versus antibiotic alone (FIGS. 5A and 5B),[1]; dark,little or no increase in red staining
same,"Effect on P. aeruginosa biofilm cells, TMP + Antibiotic, pH 7",[1]; dark,−
O=C(O)c1cn(C2CC2)c2cc(N3CCNCC3)c(F)cc2c1=O [Ciprofloxacin],gain in killing by the addition of TMP to the antibiotic,[1]; dark,no gain in killing
same,red (dead) staining with antibiotic + TMP versus antibiotic alone (FIGS. 5A and 5B),[1]; dark,little or no increase in red staining
same,"Effect on P. aeruginosa biofilm cells, TMP + Antibiotic, pH 7",[1]; dark,+
CN[C@H](CC(C)C)C(=O)N[C@H]1C(=O)N[C@@H](CC(N)=O)C(=O)N[C@H]2C(=O)N[C@H]3C(=O)N[C@H](C(=O)N[C@H](C(=O)O)c4cc(O)cc(O)c4-c4cc3ccc4O)[C@H](O)c3ccc(c(Cl)c3)Oc3cc2cc(c3O[C@@H]2O[C@H](CO)[C@@H](O)[C@H](O)[C@H]2O[C@H]2C[C@](C)(N)[C@H](O)[C@H](C)O2)Oc2ccc(cc2Cl)[C@H]1O [vancomycin],gain in killing by the addition of TMP to the antibiotic,[1]; dark,substantially enhanced killing
same,red (dead) staining with antibiotic + TMP versus antibiotic alone (FIGS. 5A and 5B),[1]; dark,predominately red staining
NC[C@H]1O[C@H](O[C@H]2[C@H](O)[C@@H](O[C@H]3O[C@H](CO)[C@@H](O)[C@H](N)[C@H]3O)[C@H](N)C[C@@H]2N)[C@H](N)C[C@@H]1O [tobramycin],"cell viability and biofilm clearance, TMP then antibiotic","[1]; TMP 225 μM 10 min then tobramycin 100 μg ml^−1 2 h, dark",predominate amount of cells staining red (dead); also recorded: substantial clearance of the biofilms and greater loss of cell viability throughout the biofilms than with either single treatment; also recorded: significant biofilm clearance and enhanced killing of cells
same,effect of pH on the combination of tobramycin and TMP,"[1]; dark conditions, pH range of 4.0 to 8.0",enhancement of killing
same,"cell viability and biofilm clearance, antibiotic alone","[1]; tobramycin alone 100 μg ml^−1, 2 h, dark, no TMP",cells predominately staining green (alive); also recorded: reduction in cell viability which was limited to cells near the surface of the biofilms; also recorded: did not result in substantial biofilm clearance and led to minimal killing of biofilm associated cells
"C[n+]1ccc(-c2c3nc(c(-c4cc[n+](C)cc4)c4ccc([nH]4)c(-c4cc[n+](C)cc4)c4nc(c(-c5cc[n+](C)cc5)c5ccc2[nH]5)C=C4)C=C3)cc1.Cc1ccc(S(=O)(=O)[O-])cc1.Cc1ccc(S(=O)(=O)[O-])cc1.Cc1ccc(S(=O)(=O)[O-])cc1.Cc1ccc(S(=O)(=O)[O-])cc1 [TMP, 5,10,15,20-tetrakis(1-methyl-pyridino)-21H,23H-porphine, tetra-p-tosylate salt]",decrease in viable cells in the attached biofilm population,[2]; attached cells,4.1 log10
same,reduction in the number of viable cells in the recovered supernatants,[2]; supernatant cells,4.5 log10
same,decrease in cell viability of attached cells,[3]; attached cells,3.9 log10
same,reduction in cell viability of cells collected from supernatants,[3]; supernatant cells,4.2 log10
same,"biofilm density and cell viability (CSLM, LIVE/DEAD)","[4]; wild-type PAO1, 100 μM TMP, irradiated 10 min",decrease in biofilm density and the majority of cells within the biofilm were non-viable
same,"biofilm disruption and clearance (CSLM, LIVE/DEAD)","[4]; wild-type PAO1, 225 μM TMP, 10 min of irradiation",nearly complete disruption and clearance; also recorded: completely disrupted with few cells remaining attached
same,biofilm structure and cell viability without photoactivation (dark toxicity),"[4]; wild-type PAO1, 225 μM TMP, dark",expanded in volume without a loss of cell viability; also recorded: no dark toxicity; also recorded: did not lead to clearance of wild-type biofilms
same,cell viability and biofilm architecture without photoactivation,"[5]; 225 μM TMP, dark",did not affect cell viability or disrupt the architecture
same,"cell viability of attached cells (CSLM, LIVE/DEAD)","[5]; 100 or 225 μM TMP, irradiated 10 min",decrease in cell viability of attached cells; also recorded: high levels of killing
same,degradation of plasmid DNA,pUCP18 plasmid DNA; irradiation for 5 or 30 min,complete degradation
same,migration of plasmid DNA in gel without photoactivation,pUCP18 plasmid DNA; nonirradiated,retarded migration of DNA; also recorded: migration was retarded
same,biofilm DNA after TMP and light,[6]; TMP and light,decrease was observed in biofilm DNA
same,biofilm DNA after TMP in the absence of light,"[6]; TMP, no light",decrease in biofilm DNA
same,toxicity to human fibroblasts,human fibroblasts,does not appear to be toxic to human fibroblasts
same,reduction of planktonic cell populations,[7],> 10^2 cfu ml^−1
same,reduction of wild-type PAO1 isolates grown in biofilms,"[8]; TMP 5.0 mg ml^−1, irradiated for 5 min",1.2 log10
same,TMP concentration necessary to achieve the same level of killing in bacteria enmeshed within biofilms,[8]; same level of killing as planktonic (>10^2 cfu ml^−1),5.0 mg/mL
same,S. aureus survival,S. aureus; TMP alone,reduce S. aureus survival
same,effect on established S. aureus biofilms,S. aureus; TMP combined with vancomycin,disrupt established biofilms
NC[C@H]1O[C@H](O[C@H]2[C@H](O)[C@@H](O[C@H]3O[C@H](CO)[C@@H](O)[C@H](N)[C@H]3O)[C@H](N)C[C@@H]2N)[C@H](O)[C@@H](O)[C@@H]1O [kanamycin],"Effect on P. aeruginosa biofilm cells, TMP + Antibiotic, pH 7",[1]; dark,+
